Laboratory results as given in patent US11512053B2, “Arginine methyltransferase inhibitors and uses thereof” (priority 2013, dated 2022).
Where two headings read alike, the source gives them in different places.

Target: T1, human CARM1 (PRMT4) (Flag- and His-tagged) (Homo sapiens, UniProt Q86X55)
T1 construct: Flag-CARM1-His; made in house; host or cells: HEK 293F cells (BacMam baculovirus)
T1 sequence (Q86X55 1-585 isoform Q86X55-1): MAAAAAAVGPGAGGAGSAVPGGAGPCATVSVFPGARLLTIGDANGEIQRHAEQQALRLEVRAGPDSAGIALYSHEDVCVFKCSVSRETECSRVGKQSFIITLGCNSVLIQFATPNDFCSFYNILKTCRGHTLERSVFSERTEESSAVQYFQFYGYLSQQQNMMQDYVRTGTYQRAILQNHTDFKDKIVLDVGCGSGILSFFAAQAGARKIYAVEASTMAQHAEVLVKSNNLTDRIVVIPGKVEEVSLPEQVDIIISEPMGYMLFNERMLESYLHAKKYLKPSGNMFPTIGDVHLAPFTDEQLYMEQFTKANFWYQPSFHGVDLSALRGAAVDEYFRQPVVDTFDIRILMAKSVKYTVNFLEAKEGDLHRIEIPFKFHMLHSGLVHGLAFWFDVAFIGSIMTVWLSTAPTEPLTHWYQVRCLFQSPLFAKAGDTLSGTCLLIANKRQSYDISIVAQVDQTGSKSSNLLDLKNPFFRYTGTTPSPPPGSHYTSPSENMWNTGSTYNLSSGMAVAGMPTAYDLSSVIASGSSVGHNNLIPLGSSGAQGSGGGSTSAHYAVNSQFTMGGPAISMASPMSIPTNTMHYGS
Assay: CARM1 Biochemical Assay (3H-SAM Flashplate, peptide substrate)
Text: General Materials. S-adenosylmethionine (SAM), S-adenosylhomocysteine (SAH), bicine, Tween20, dimethylsulfoxide (DMSO), bovine skin gelatin (BSG), sodium butyrate and Tris(2-carboxyethyl)phosphine hydrochloride solution (TCEP) were purchased from Sigma-Aldrich at the highest level of purity possible. ^3H-SAM was purchase from American Radiolabeled Chemicals with a specific activity of 80 Ci/mmol. 384-well streptavidin Flashplates were purchased from PerkinElmer.
Substrates. Peptide representative of human histone H3 residues 16-30 was synthesized with an N-terminal linker-affinity tag motif and a C-terminal amide cap by 21st Century Biochemicals. The peptide was purified by high-performance liquid chromatography (HPLC) to greater than 95% purity and confirmed by liquid chromatography mass spectrometry (LC-MS). The sequence was Biot-Ahx-[…]-amide and contained a monomethylated arginine at position 26 (SEQ ID NO.:14).
Molecular Biology: Human CARM1 (PRMT4) (NM_199141.1) transcript clone was amplified from an HEK 293 cDNA library, incorporating a flanking 5′ sequence encoding a FLAG tag ([…]) (SEQ ID NO.:6) fused directly to Ala 2 of CARM1 and 3′ sequence encoding a hexa His sequence ([…]) (SEQ ID NO.:15) fused directly to Ser 608. The gene sequence encoding isoform1 containing a deletion of amino acids 539-561 was amplified subsequently and subcloned into pFastBacMam (Viva Biotech).
Protein Expression. Recombinant baculovirus were generated according to Bac-to-Bac kit instructions (Life Technologies). […] Infections were carried out at 37° C. for 48 hours, harvested by centrifugation, and stored at −80° C. for purification.
Protein Purification. […] Column was washed with 500 mM NaCl in buffer A and Flag-CARM1-His was eluted with 200 ug/ml FLAG peptide in buffer A. Pooled fractions were dialyzed in 20 mM Tris, 150 mM NaCl, 5% glycerol and 1 mM DTT, pH 7.8. The purity of recovered protein was 94.
General Procedure for CARM1 Enzyme Assays on Peptide Substrates. The assays were all performed in a buffer consisting of 20 mM Bicine (pH=7.6), 1 mM TCEP, 0.005% BSG, and 0.002% Tween 20, prepared on the day of use. Compounds in 100% DMSO (1 ul) were spotted into a polypropylene 384-well V-bottom plates (Greiner) using a Platemate Plus outfitted with a 384-channel head (Thermo Scientific). DMSO (1 ul) was added to Columns 11, 12, 23, 24, rows A-H for the maximum signal control and 1 ul of SAH, a known product and inhibitor of CARM1, was added to columns 11, 12, 23, 24, rows I-P for the minimum signal control. A cocktail (40 ul) containing the CARM1 enzyme was added by Multidrop Combi (Thermo-Fisher). The compounds were allowed to incubate with CARM1 for 30 min at room temperature, then a cocktail (10 ul) containing ^3H-SAM and peptide was added to initiate the reaction (final volume=51 ul). The final concentrations of the components were as follows: CARM1 was 0.25 nM, ^3H-SAM was 30 nM, peptide was 250 nM, SAH in the minimum signal control wells was 1 mM, and the DMSO concentration was 2%. The assays were stopped by the addition of non-radiolabeled SAM (10 ul) to a final concentration of 300 uM, which dilutes the ^3H-SAM to a level where its incorporation into the peptide substrate is no longer detectable. 50 ul of the reaction in the 384-well polypropylene plate was then transferred to a 384-well Flashplate and the biotinylated peptides were allowed to bind to the streptavidin surface for at least 1 hour before being washed once with 0.1% Tween20 in a Biotek ELx405 plate washer. The plates were then read in a PerkinElmer TopCount plate reader to measure the quantity of ^3H-labeled peptide bound to the Flashplate surface, measured as disintegrations per minute (dpm) or alternatively, referred to as counts per minute (cpm).
Where dpm=disintegrations per minute, cmpd=signal in assay well, and min and max are the respective minimum and maximum signal controls. […]

[1] = single experiment or average of multiple experiments

**Q.** For `COc1cccc(/C=C/c2n[nH]cc2CN(C)CCN)c1` [Compound 17], which IC50 [1] is on record?
**A.** Its IC50 is 90 nM.

**Q.** For `CNCCN(C)Cc1c[nH]nc1/C=C/c1ccc(C(F)(F)F)cc1` [Compound 6], which IC50 [1] is on record?
**A.** The IC50 was 570 nM.

**Q.** With `CN(CCN)Cc1c[nH]nc1/C=C/c1ccc(C(F)(F)F)cc1` [Compound 18] as the molecule, how does the IC50 [1] read?
**A.** Its IC50 is 100 nM.

**Q.** `CNCCN(C)Cc1c[nH]nc1/C=C/c1ccc(OC)cc1` [Compound 7] was tested. Which IC50 [1] did it give?
**A.** The IC50 was 90 nM.

**Q.** For `CN(CCN)Cc1c[nH]nc1C1CCCCC1` [Compound 22], which IC50 [1] is on record?
**A.** The IC50 was 3770 nM.

**Q.** With `CNCCN(C)Cc1c[nH]nc1/C=C/c1ccc(-c2ccccc2)cc1` [Compound 5] as the molecule, how does the IC50 [1] read?
**A.** Its IC50 is 310 nM.

**Q.** With `Cc1ccc(/C=C/c2n[nH]cc2CN(C)CCN)cc1` [Compound 8] as the molecule, how does the IC50 [1] read?
**A.** Its IC50 is 370 nM.

**Q.** Which IC50 does the source give for `CN(CCN)Cc1c[nH]nc1C1=CCOCC1` [Compound 10] here?
**A.** Its IC50 is greater than 10000 nM.

**Q.** And the IC50 [1]?
**A.** The IC50 was greater than 10000 nM.

**Q.** With `CNCCN(C)Cc1c[nH]nc1C#Cc1ccc(F)cc1` [Compound 4] as the molecule, how does the IC50 [1] read?
**A.** Its IC50 is 500 nM.

**Q.** With `COC/C=C/c1n[nH]cc1CN(C)CCN` [Compound 19] as the molecule, how does the IC50 [1] read?
**A.** The IC50 was 3780 nM.

**Q.** For `CN(CCN)Cc1c[nH]nc1/C=C/c1ccc(F)cc1F` [Compound 13], which IC50 [1] is on record?
**A.** Its IC50 is 200 nM.

**Q.** With `CN(CCN)Cc1c[nH]nc1/C=C/c1cc(C(F)(F)F)cc(C(F)(F)F)c1` [Compound 14] as the molecule, how does the IC50 [1] read?
**A.** The IC50 was 510 nM.

**Q.** `CN(CCN)Cc1c[nH]nc1/C=C/c1cc(F)cc(F)c1` [Compound 15] was tested. Which IC50 [1] did it give?
**A.** The IC50 was 310 nM.

**Q.** For `CN(CCN)Cc1c[nH]nc1CCc1ccc(F)cc1` [Compound 23, N^1-((3-(4-fluorophenethyl)-1H-pyrazol-4-yl)methyl)-N^1-methylethane-1,2-diamine], which IC50 [1] is on record?
**A.** The IC50 was 2780 nM.

**Q.** With `CN(CCN)Cc1c[nH]nc1C1CC1` [Compound 12] as the molecule, how does the IC50 read?
**A.** Its IC50 is greater than 10000 nM.

**Q.** And the IC50 [1]?
**A.** The IC50 was greater than 10000 nM.

**Q.** `COc1cc(/C=C/c2n[nH]cc2CN(C)CCN)cc(OC)c1` [Compound 11] was tested. Which IC50 [1] did it give?
**A.** Its IC50 is 50 nM.

**Q.** Which IC50 [1] does the source give for `CN(CCN)Cc1c[nH]nc1/C=C/c1cccc(F)c1` [Compound 20] here?
**A.** The IC50 was 250 nM.

**Q.** `CN(CCN)Cc1c[nH]nc1/C=C/c1cccc(C(F)(F)F)c1` [Compound 16] was tested. Which IC50 [1] did it give?
**A.** The IC50 was 110 nM.

**Q.** `CNCCN(C)Cc1c[nH]nc1C#Cc1cccc(OC)c1` [Compound 1] was tested. Which IC50 [1] did it give?
**A.** Its IC50 is 260 nM.

**Q.** For `CC(C)c1n[nH]cc1CN(C)CCN` [Compound 21], which IC50 is on record?
**A.** The IC50 was greater than 10000 nM.

**Q.** And the IC50 [1]?
**A.** Its IC50 is greater than 10000 nM.

**Q.** How did the IC50 [1] turn out when `CNCCN(C)Cc1c[nH]nc1C#Cc1ccc(C(C)(C)C)cc1` [Compound 2] was run?
**A.** The IC50 was 110 nM.
